Assay results as given in ChEMBL document CHEMBL2424532, “Investigation of an F-18 oxytocin receptor selective ligand via PET imaging” (Bioorg Med Chem Lett, 2013).

Legend:
[1] = target: 5-hydroxytryptamine receptor 6 (Homo sapiens, UniProt P50406); assay: Binding affinity to human 5HT6 receptor by competitive binding assay
[2] = target: T1, Alpha-1A adrenergic receptor (Homo sapiens, UniProt P35348); assay: Binding affinity to human adrenergic alpha-1A receptor by competitive binding assay
T1 sequence (P35348 whole entry): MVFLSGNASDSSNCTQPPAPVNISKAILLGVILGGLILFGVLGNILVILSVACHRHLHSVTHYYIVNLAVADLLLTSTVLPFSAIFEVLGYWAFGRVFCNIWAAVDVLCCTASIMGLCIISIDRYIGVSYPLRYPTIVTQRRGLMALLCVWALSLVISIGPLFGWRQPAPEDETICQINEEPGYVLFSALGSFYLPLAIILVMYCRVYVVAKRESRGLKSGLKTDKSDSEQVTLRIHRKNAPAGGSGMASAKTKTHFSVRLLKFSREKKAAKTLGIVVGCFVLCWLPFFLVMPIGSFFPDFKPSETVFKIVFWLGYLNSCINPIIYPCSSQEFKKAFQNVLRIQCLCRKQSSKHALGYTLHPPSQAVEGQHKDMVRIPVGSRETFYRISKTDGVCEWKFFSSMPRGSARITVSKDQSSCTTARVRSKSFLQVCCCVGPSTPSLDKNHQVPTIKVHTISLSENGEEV

D(3) dopamine receptor = D(3) dopamine receptor (Homo sapiens, UniProt P35462); assay: Binding affinity to human dopamine D3 receptor by competitive binding assay
Chain of D(3) dopamine receptor (P35462 whole entry): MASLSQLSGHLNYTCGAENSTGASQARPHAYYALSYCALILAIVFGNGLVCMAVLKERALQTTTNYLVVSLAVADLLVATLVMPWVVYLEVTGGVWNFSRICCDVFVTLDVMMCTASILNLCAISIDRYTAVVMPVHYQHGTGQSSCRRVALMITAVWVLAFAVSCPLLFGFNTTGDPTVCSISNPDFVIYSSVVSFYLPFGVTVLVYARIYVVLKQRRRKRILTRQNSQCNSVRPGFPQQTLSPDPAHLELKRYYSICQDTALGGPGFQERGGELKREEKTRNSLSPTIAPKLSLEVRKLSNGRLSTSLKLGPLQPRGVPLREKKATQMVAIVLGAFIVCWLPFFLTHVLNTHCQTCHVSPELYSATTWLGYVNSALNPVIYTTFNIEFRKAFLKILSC

[3] = target: Serotonin (5-HT) receptor; assay: Binding affinity to human 5HTB receptor by competitive binding assay; format: protein assay
[4] = target: 5-hydroxytryptamine receptor 2B (Homo sapiens, UniProt P41595); assay: Binding affinity to human 5HT2B receptor by competitive binding assay
Chain of 5-hydroxytryptamine receptor 2B (P41595 whole entry): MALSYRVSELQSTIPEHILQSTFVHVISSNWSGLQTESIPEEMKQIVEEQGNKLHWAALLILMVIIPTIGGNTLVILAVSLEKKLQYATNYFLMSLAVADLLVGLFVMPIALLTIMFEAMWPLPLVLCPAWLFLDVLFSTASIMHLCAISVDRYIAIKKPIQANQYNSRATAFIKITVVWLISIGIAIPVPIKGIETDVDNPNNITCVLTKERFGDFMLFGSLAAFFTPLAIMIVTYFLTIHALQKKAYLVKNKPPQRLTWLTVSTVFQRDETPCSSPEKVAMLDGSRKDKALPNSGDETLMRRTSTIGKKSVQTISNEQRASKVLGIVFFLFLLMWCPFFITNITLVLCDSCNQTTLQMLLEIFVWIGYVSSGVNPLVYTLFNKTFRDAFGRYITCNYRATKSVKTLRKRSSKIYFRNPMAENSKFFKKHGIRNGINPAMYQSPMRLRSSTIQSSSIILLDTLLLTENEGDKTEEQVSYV

[5] = target: T2, Muscarinic acetylcholine receptor M4 (Homo sapiens, UniProt P08173); assay: Binding affinity to human muscarinic M4 receptor by competitive binding assay
T2 sequence (P08173 whole entry): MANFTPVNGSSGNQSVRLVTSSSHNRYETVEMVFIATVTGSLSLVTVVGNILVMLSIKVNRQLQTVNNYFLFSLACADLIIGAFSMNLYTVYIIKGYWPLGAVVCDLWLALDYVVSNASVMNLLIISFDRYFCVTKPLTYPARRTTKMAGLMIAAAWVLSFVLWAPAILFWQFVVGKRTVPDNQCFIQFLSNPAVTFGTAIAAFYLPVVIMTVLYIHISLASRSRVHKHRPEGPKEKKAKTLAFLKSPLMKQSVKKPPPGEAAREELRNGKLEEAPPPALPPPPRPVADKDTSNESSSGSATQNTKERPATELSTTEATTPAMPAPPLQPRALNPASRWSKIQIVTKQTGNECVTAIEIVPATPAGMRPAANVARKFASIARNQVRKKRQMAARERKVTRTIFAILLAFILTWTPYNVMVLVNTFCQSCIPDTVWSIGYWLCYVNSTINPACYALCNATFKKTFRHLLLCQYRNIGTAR

[6] = target: 5-hydroxytryptamine receptor 1B (Homo sapiens, UniProt P28222); assay: Binding affinity to human 5HT1B receptor by competitive binding assay
Chain of 5-hydroxytryptamine receptor 1B (P28222 whole entry): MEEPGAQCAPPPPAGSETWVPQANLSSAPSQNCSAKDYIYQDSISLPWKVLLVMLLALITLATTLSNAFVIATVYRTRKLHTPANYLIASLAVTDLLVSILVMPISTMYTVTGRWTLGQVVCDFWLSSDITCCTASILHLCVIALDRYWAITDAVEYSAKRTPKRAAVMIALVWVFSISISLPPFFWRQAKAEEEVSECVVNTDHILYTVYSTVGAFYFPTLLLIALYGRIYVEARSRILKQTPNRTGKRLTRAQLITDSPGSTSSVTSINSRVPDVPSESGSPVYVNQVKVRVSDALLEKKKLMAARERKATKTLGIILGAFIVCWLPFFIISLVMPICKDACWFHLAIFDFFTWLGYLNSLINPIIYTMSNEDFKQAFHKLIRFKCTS

Vasopressin V2 receptor = Vasopressin V2 receptor (Homo sapiens, UniProt P30518); assay: Binding affinity to human V2R by competitive binding assay
Chain of Vasopressin V2 receptor (P30518 whole entry): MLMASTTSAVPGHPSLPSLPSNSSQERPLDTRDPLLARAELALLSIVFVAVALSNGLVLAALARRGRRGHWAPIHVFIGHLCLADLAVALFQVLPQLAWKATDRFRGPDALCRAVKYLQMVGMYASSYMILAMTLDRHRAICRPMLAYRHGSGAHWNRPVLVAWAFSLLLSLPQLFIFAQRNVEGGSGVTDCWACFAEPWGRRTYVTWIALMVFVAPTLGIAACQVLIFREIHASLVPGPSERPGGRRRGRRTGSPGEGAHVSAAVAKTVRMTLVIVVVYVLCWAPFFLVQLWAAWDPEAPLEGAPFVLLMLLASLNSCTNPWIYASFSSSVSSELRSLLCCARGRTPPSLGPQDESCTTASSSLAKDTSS

Vasopressin V1b receptor = target: T3, Vasopressin V1b receptor (Homo sapiens, UniProt P47901); assay: Binding affinity to human V1BR by competitive binding assay
T3 sequence (P47901 whole entry): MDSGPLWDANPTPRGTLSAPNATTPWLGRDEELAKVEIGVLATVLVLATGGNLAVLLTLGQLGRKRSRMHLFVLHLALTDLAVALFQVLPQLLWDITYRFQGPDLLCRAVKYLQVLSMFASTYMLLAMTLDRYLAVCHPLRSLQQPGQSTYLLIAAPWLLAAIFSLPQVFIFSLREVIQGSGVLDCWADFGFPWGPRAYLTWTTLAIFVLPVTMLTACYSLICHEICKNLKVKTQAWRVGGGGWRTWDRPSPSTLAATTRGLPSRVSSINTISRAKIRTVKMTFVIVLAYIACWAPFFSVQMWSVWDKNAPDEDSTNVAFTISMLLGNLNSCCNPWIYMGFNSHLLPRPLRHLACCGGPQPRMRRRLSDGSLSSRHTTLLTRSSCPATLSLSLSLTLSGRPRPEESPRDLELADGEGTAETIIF

Vasopressin V1a receptor = Vasopressin V1a receptor (Homo sapiens, UniProt P37288); assay: Binding affinity to human V1AR by competitive binding assay
Chain of Vasopressin V1a receptor (P37288 whole entry): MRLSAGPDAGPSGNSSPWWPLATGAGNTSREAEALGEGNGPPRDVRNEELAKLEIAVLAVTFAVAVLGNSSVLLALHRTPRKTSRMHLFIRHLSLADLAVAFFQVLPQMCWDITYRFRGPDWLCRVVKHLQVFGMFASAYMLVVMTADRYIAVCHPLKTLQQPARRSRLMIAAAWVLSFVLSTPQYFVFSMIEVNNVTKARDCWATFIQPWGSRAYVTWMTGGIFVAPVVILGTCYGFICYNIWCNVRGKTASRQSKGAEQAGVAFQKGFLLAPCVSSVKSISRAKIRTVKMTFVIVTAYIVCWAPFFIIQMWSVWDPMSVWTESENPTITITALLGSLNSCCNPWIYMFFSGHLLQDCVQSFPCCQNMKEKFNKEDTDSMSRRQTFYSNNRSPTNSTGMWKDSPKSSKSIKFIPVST

Oxytocin receptor = target: T4, Oxytocin receptor (Homo sapiens, UniProt P30559); assay: Binding affinity to human OTR by competitive binding assay
T4 sequence (P30559 whole entry): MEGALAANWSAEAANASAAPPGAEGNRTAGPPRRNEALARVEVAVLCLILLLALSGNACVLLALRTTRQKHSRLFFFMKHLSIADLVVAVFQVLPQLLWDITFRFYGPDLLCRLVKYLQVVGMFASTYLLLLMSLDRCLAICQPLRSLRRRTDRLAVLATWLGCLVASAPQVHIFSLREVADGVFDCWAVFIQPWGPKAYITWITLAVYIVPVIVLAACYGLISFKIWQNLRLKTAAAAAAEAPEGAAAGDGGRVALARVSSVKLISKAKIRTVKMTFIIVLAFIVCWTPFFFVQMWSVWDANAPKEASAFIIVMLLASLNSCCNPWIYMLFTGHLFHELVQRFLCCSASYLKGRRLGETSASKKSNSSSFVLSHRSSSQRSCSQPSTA

[7] = Drug uptake in cynomolgus monkey choroid plexus at 5.5 mCi after 2 hrs in presence of unlabeled compound administered 45 mins before tracer challenge; format: ADME, Macaca fascicularis; conditions: in vivo
[8] = Drug uptake in cynomolgus monkey choroid plexus at 5.5 mCi after 2 hrs in presence of unlabeled compound administered 30 mins before tracer challenge; format: ADME, Macaca fascicularis; conditions: in vivo
[9] = Drug uptake in cynomolgus monkey middle cerebral artery of cerebral cortex at 5.5 mCi up to 15 mins; format: ADME, tissue-based, Macaca fascicularis; conditions: in vivo, 0.25 h
Brain [10] = assay: Drug uptake in Sprague-Dawley rat brain at 280 uCi after 20 mins by PET analysis; format: ADME, tissue-based; conditions: in vivo
[11] = Lipophilicity, log P of the compound at pH 7.4; format: physicochemical; conditions: buffer
Brain [12] = assay: Drug uptake in Sprague-Dawley rat brain at 280 uCi up to 20 mins by PET analysis; format: ADME, tissue-based; conditions: in vivo

Chain of 5-hydroxytryptamine receptor 6 (P50406 whole entry): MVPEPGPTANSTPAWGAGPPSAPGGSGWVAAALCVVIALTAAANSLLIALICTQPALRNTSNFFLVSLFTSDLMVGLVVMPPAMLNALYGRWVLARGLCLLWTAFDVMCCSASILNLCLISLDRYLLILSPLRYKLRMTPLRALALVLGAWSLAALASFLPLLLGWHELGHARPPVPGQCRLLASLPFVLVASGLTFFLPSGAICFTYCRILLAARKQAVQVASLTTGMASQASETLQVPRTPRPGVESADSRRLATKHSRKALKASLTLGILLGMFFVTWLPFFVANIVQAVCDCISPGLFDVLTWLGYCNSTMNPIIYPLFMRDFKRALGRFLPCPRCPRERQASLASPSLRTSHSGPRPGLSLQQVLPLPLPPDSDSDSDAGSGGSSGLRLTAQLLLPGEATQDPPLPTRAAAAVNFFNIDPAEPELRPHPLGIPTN

Structure (SMILES)	Ki [1]	Ki [2]	Ki (D(3) dopamine receptor)	Ki [3]	Ki [4]	Ki [5]	Ki [6]	Ki (Vasopressin V2 receptor)	Ki (Vasopressin V1b receptor)	Ki (Vasopressin V1a receptor)	Ki (Oxytocin receptor)	Drug uptake [7]	Drug uptake [8]	Drug uptake [9]	Drug uptake (Brain [10])	logD [11]	Drug uptake (Brain [12])
Cl.O=C(Cc1ccc(OC2CCNCC2)cc1OCCF)N1CCC(N2C(=O)CCc3ccccc32)CC1	187 nM	80 nM	6.79 µM	1270 nM	500 nM	1270 nM	700 nM	8.7 µM	> 10 µM	5.6 µM	15 nM						
CS(=O)(=O)N1CCC(Oc2ccc(CC(=O)N3CCC(N4C(=O)CCc5ccccc54)CC3)c(OCCF)c2)CC1									> 10 µM								
O=C(Cc1ccc(OC2CCNCC2)cc1OCC[18F])N1CCC(N2C(=O)CCc3ccccc32)CC1												Active	Active	Active	Not Active	1.57	Active
